In paper PMC5519928, “Log D versus HPLC derived hydrophobicity: The development of predictive tools to aid in the rational design of bioactive peptoids” (Biopolymers, 2017):
Converted amounts (≈) assume the structure as drawn. Non-standard residues stand in square brackets, D forms with d. Residues, ends and D or L forms follow the SMILES beside them. Gly(N-2-aminoethyl) = NCCNCC(=O)O; Nspe = C[C@H](NCC(=O)O)c1ccccc1; Nphe = O=C(O)CNCc1ccccc1; Nlys = NCCCCNCC(=O)O

Tests used:
E. coli = format: cell-based; conditions: 16 h
Method: (§1) Bacterial cultures were prepared by streaking the bacterial strain from a 4°C- or frozen stock culture to single colonies onto agar plates (containing the appropriate antibiotic for strains carrying antibiotic resistance plasmids) with an inoculation loop, followed by overnight incubation at 37 °C.
(§2) Primary overnight (o/n) cultures were prepared by inoculating a single colony from a streak plate into 5 mL of LB broth in a screw-capped culture tube, that was placed on a tube rotator at 37 °C (or 30 °C for sensitive strains) for overnight incubation. Before the usage of stock cultures the strains genotype were checked. Primary stocks were stored at 4°C for up to 6 weeks and always replaced from fresh colonies.
(§3) Fresh cultures used for experiments contained 0.1-0.5 mL o/n culture diluted into 8 mL of fresh medium in a standard test tube. Placed in a shaking water bath or on a tube rotator the bacteria were grown at the required temperature to the required cell density. Frozen stock cultures used for long term storage that can remain viable for 10 years were prepared by mixing 2.5 mL fresh o/n culture with 1.5 mL sterile 80% glycerol in a 5 mL sterile blood tube and stored at -20 °C.
(§4) MIC values were attained according to the previously described protocol4 and were conducted in 96-well plates (Costar, Fisher Scientific). Using the pre-prepared cultures, an innoculum density of 0.07 at 650 nm was set by comparing the absorbance with 0.5 MacFarland standard (240 μM BaCl2 in 0.18 M H2SO4). The innoculum was then diluted down ten-fold with Iso-sensitest broth (Oxoid, ThermoScientific) before use. Peptoids were initially dissolved in DMSO (5 mM) and then diluted further with Iso-sensitest broth to achieve a concentration range of 4 – 200 µM using 1 : 2 serial dilutions. 50 μl of innoculum and 50 μL of peptoid solution were added to each test well (final concentration range of 2 – 100 µM). Positive control containing only innoculum and Iso-sensitest broth; negative control containing inoculum and serial dilutions of ampicillin (from 250 microgram/mL to 2 microgram per mL); DMSO control containing innoculum and serial dilutions of DMSO; and Iso-sensitest broth were used as a sterile control. […] Quantitative data was attained from absorbance values using a microplate reader.

S. aureus = format: cell-based; conditions: 16 h
Method: as §1, §2, §3, §4

[1] = Average hydrophobicity by analytical reverse-phase HPLC retention; format: physicochemical; conditions: for RP-HPLC Retention (% MeCN): Supplement table 4 (chemical and physical data for peptoid library), % MeCN at elution in RP-HPLC; for RP-HPLC Retention: Table S3, representative analytical RP-HPLC traces, SB-Analytical ODH-S column 100 x 1.6 mm, 3.5 µm, 0-100% solvent B over 30 min at 220 nm, A = 95% H2O, 0.05% TFA, B = 95% MeCN, 0.03% TFA
Method: (§5) To examine the average hydrophobicity of the peptoids, the retention time for from reverse‐phase HPLC was determined on a C18 column using acetonitrile and water, with 0.1% TFA (see Figure 3A). To find log D values, partitioning experiments were carried out, as illustrated by Figure 2. A peptoid solution (between 10 and 100 µM) in PBS was added to an equal volume of octanol and the system allowed to equilibrate under gentle agitation for ∼150 h (as 48 h was not found to be sufficient for the system to reach equilibrium). At this point it is assumed that the peptoid has partitioned between these two phases, such as to minimise its free energy.
Preparative RP‐HPLC was performed with a semi‐preparative Perkin Elmer Series 200 lc pump fitted with a 785A UV/Vis detector using a SB‐Analytical ODH‐S optimal column (250 mm × 10 mm, 5 µm); flow rate 2 mL min^−1; λ = 250 nm, typical linear gradient elution 0–50% of solvent B over 60 min (A = 0.1% TFA in 95% H2O and 5% MeCN, B = 0.1% TFA in 5% H2O and 95% MeCN). Analytical RP‐HPLC was performed with a Perkin Elmer Series 200 LC pump fitted with a Series 200 UV/Vis detector using a SB‐Analytical ODH‐S optimal column (100 mm × 1.6 mm, 3.5 µm); flow rate 1 mL min^−1; λ = 220 nm, linear gradient elution 0–100% of solvent B over 30 min (A = 0.05% TFA, 95% H2O, 5% MeCN, B = 0.03% TFA, 5% H2O, 95% MeCN).
Preparative RP-HPLC was performed with a semi-preparative Perkin Elmer Series 200 lc pump fitted with a 785A UV/Vis detector using a SB-Analytical ODH-S optimal column (250 × 10 mm, 5 µm); flow rate 2 ml min^−1; λ = 250 nm, typical linear gradient elution 0-50% of solvent B over 60 min (A = 0.1% TFA in 95% H2O and 5% MeCN, B = 0.1% TFA in 5% H2O and 95% MeCN). Analytical RP-HPLC was performed with a Perkin Elmer Series 200 LC pump fitted with a Series 200 UV/Vis detector using a SB-Analytical ODH-S optimal column (100 × 1.6 mm, 3.5 µm); flow rate 1 ml min^−1; λ = 220 nm, linear gradient elution 0-100% of solvent B over 30 min (A = 0.05% TFA, 95% H2O, 5% MeCN, B = 0.03% TFA, 5% H2O, 95% MeCN).
Table S3. Data from analytical RP-HPLC for representative compounds of this peptoid library. Analytical HPLC gradient: 0 – 100% solvent B over 30 min at 220 nm (where solvent A = 95% H2O, 5% MeCN, 0.05 % TFA; solvent B = 95% MeCN, 5% H2O, 0.03% TFA).

[2] = log D by partitioning experiment in octanol and PBS; format: physicochemical; conditions: pH 7.4
Method: as §5
A combination of UV spectrometry and dynamic light scattering were used to determine that no aggregation was taking place in either phase (see Supporting Information). The peptoid concentrations of both phases were then determined using UV–Vis spectroscopy and the logarithm of the ratio of […] (log D) was calculated (Figure 3B). […]
Partition experiments were carried out by putting 450 µL of octanol in contact with 450 µL of PBS, which contained between […] of peptoid. Each peptoid was measured in triplicate. […] The concentration of peptoid remaining in the PBS and the octanol was measured individually using the phenylalanine peak as before. […]

For `C[C@@H](c1ccccc1)N(CC(N)=O)C(=O)CN(C(=O)CN(CCN)C(=O)CN(C(=O)CN(C(=O)CN(CCN)C(=O)CN(C(=O)CN(C(=O)CN(CCN)C(=O)CN(C(=O)CN(C(=O)CNCCN)[C@@H](C)c1ccccc1)[C@@H](C)c1ccccc1)[C@@H](C)c1ccccc1)[C@@H](C)c1ccccc1)[C@@H](C)c1ccccc1)[C@@H](C)c1ccccc1)[C@@H](C)c1ccccc1` [Peptoid 10] (H-[Gly(N-2-aminoethyl)][Nspe][Nspe][Gly(N-2-aminoethyl)][Nspe][Nspe][Gly(N-2-aminoethyl)][Nspe][Nspe][Gly(N-2-aminoethyl)][Nspe][Nspe]-NH2), the “MIC E. coli” value (E. coli) was over 100 µM, the “MIC S. aureus” value (S. aureus) was 2 µM (≈ 3.41 µg/mL) and the “RP-HPLC Retention (% MeCN)” value [1] was 41 % MeCN. The “HPLC RT” value ([1]; Table 2 / main text, chromatographic, RP-HPLC C18 retention time as measure of average hydrophobicity, gradient 0-100% solvent B over 30 min, 220 nm, 1 mL/min, A = 0.05% TFA, 95% H2O, 5% MeCN, B = 0.03% TFA, 5% H2O, 95% MeCN, around pH 2.2) was 16.7 min.
For `C[C@@H](c1ccccc1)N(CC(N)=O)C(=O)CN(C(=O)CN(CCCCN)C(=O)CN(C(=O)CN(C(=O)CNCCCCN)[C@@H](C)c1ccccc1)[C@@H](C)c1ccccc1)[C@@H](C)c1ccccc1` [Peptoid 6] (H-[Nlys][Nspe][Nspe][Nlys][Nspe][Nspe]-NH2), the “RP-HPLC Retention (% MeCN)” value [1] was 33 % MeCN and the “RP-HPLC Retention” value ([1]; 5% MeCN, 5% H2O) was 14.4 min.
For `C[C@@H](c1ccccc1)N(CC(N)=O)C(=O)CN(C(=O)CN(CCN)C(=O)CN(C(=O)CN(C(=O)CN(CCN)C(=O)CN(C(=O)CN(C(=O)CNCCN)[C@@H](C)c1ccccc1)[C@@H](C)c1ccccc1)[C@@H](C)c1ccccc1)[C@@H](C)c1ccccc1)[C@@H](C)c1ccccc1` [Peptoid 11] (H-[Gly(N-2-aminoethyl)][Nspe][Nspe][Gly(N-2-aminoethyl)][Nspe][Nspe][Gly(N-2-aminoethyl)][Nspe][Nspe]-NH2), the “RP-HPLC Retention (% MeCN)” value [1] was 39 % MeCN and the “log D” value [2] was “negative”.
With `NCCNCC(=O)N(CC(=O)N(CC(=O)N(CCN)CC(=O)N(CC(=O)N(CC(=O)N(CCN)CC(=O)N(CC(=O)N(CC(=O)N(CCN)CC(=O)N(CC(=O)N(CC(N)=O)Cc1ccccc1)Cc1ccccc1)Cc1ccccc1)Cc1ccccc1)Cc1ccccc1)Cc1ccccc1)Cc1ccccc1)Cc1ccccc1` [Peptoid 7] (H-[Gly(N-2-aminoethyl)][Nphe][Nphe][Gly(N-2-aminoethyl)][Nphe][Nphe][Gly(N-2-aminoethyl)][Nphe][Nphe][Gly(N-2-aminoethyl)][Nphe][Nphe]-NH2) the “RP-HPLC Retention (% MeCN)” value [1] was 37 % MeCN and the “RP-HPLC Retention” value ([1]; 5% MeCN, 5% H2O) was 15.2 min.
With `NCCCCNCC(=O)N(CC(=O)N(CC(=O)N(CCCCN)CC(=O)N(CC(=O)N(CC(=O)N(CCCCN)CC(=O)N(CC(=O)N(CC(N)=O)Cc1ccccc1)Cc1ccccc1)Cc1ccccc1)Cc1ccccc1)Cc1ccccc1)Cc1ccccc1` [Peptoid 2] the “RP-HPLC Retention (% MeCN)” value [1] was 34 % MeCN.
In the case of `NCCCCNCC(=O)N(CC(=O)N(CC(=O)N(CCCCN)CC(=O)N(CC(=O)N(CC(N)=O)Cc1ccccc1)Cc1ccccc1)Cc1ccccc1)Cc1ccccc1` [Peptoid 3] (H-[Nlys][Nphe][Nphe][Nlys][Nphe][Nphe]-NH2), the “RP-HPLC Retention (% MeCN)” value [1] is reported as 31 % MeCN.
With `NCCNCC(=O)N(CC(=O)N(CC(=O)N(CCN)CC(=O)N(CC(=O)N(CC(=O)N(CCN)CC(=O)N(CC(=O)N(CC(N)=O)Cc1ccccc1)Cc1ccccc1)Cc1ccccc1)Cc1ccccc1)Cc1ccccc1)Cc1ccccc1` [Peptoid 8] (H-[Gly(N-2-aminoethyl)][Nphe][Nphe][Gly(N-2-aminoethyl)][Nphe][Nphe][Gly(N-2-aminoethyl)][Nphe][Nphe]-NH2) the “RP-HPLC Retention (% MeCN)” value [1] was 34 % MeCN.
In the case of `C[C@@H](c1ccccc1)N(CC(N)=O)C(=O)CN(C(=O)CN(CCN)C(=O)CN(C(=O)CN(C(=O)CNCCN)[C@@H](C)c1ccccc1)[C@@H](C)c1ccccc1)[C@@H](C)c1ccccc1` [Peptoid 12], the “RP-HPLC Retention (% MeCN)” value [1] is reported as 33 % MeCN.
In the case of `C[C@@H](c1ccccc1)N(CC(N)=O)C(=O)CN(C(=O)CN(CCCCN)C(=O)CN(C(=O)CN(C(=O)CN(CCCCN)C(=O)CN(C(=O)CN(C(=O)CNCCCCN)[C@@H](C)c1ccccc1)[C@@H](C)c1ccccc1)[C@@H](C)c1ccccc1)[C@@H](C)c1ccccc1)[C@@H](C)c1ccccc1` [Peptoid 5] (H-[Nlys][Nspe][Nspe][Nlys][Nspe][Nspe][Nlys][Nspe][Nspe]-NH2), the “RP-HPLC Retention (% MeCN)” value [1] is reported as 37 % MeCN and the “RP-HPLC Retention” value ([1]; 5% MeCN, 5% H2O) is reported as 15.3 min.
For `NCCCCNCC(=O)N(CC(=O)N(CC(=O)N(CCCCN)CC(=O)N(CC(=O)N(CC(=O)N(CCCCN)CC(=O)N(CC(=O)N(CC(=O)N(CCCCN)CC(=O)N(CC(=O)N(CC(N)=O)Cc1ccccc1)Cc1ccccc1)Cc1ccccc1)Cc1ccccc1)Cc1ccccc1)Cc1ccccc1)Cc1ccccc1)Cc1ccccc1` [Peptoid 1] (H-[Nlys][Nphe][Nphe][Nlys][Nphe][Nphe][Nlys][Nphe][Nphe][Nlys][Nphe][Nphe]-NH2), the “RP-HPLC Retention (% MeCN)” value [1] was 37 % MeCN.
In the case of `NCCNCC(=O)N(CC(=O)N(CC(=O)N(CCN)CC(=O)N(CC(=O)N(CC(N)=O)Cc1ccccc1)Cc1ccccc1)Cc1ccccc1)Cc1ccccc1` [Peptoid 9] (H-[Gly(N-2-aminoethyl)][Nphe][Nphe][Gly(N-2-aminoethyl)][Nphe][Nphe]-NH2), the “RP-HPLC Retention (% MeCN)” value [1] is reported as 30 % MeCN.
